We go through 3 molecules from article PMC11952846, “The sterol-regulating human ARV1 binds cholesterol and phospholipids through its conserved ARV1 homology domain” (The Journal of Biological Chemistry, 2025).

Positions count from the first letter of the chain named.

In one data set the target is GST-Annexin A2 (Homo sapiens, UniProt P07355). In words: Lipid overlay far western (positive control protein). The format is binding. The settings on record: lipid-embedded membrane strips, incl. sphingolipid strip. On the procedure: (§1) Lipid overlays were blocked in TBST-BSA (100 mM Tris–HCl buffer, pH 7.5, 150 mM NaCl, 0.5% Tween 20, 3% bovine serum albumin) for 1 h and subsequently washed eight separate times with TBST for 2 min each. Overlays were incubated with 0.5 μg/ml GST-tagged or 6XHIS-tagged proteins in 3% TBST-BSA buffer containing 0.1% Triton X-100, for 1 h at room temperature and washed as above. Overlays were incubated with either anti-GST or anti-6XHIS monoclonal antibodies at a 1:1000 dilution in TBST-BSA for 1 h at room temperature followed by eight washes in TBST. Overlays were visualized using Immobilon Western Chemiluminescent horseradish peroxidase substrate and protein–lipid interaction was detected using a GE ImageQuant LAS 3000 imager.

The next data set deals with T1, GST-ARV1-N98 K54/K59A (Homo sapiens, UniProt Q9H2C2, K54A/K59A).
T1 construct: Expresses amino-terminal 98 amino acids of ARV1; made in house; host or cells: E. coli BL21 (pGEX-4T1)
In words: Liposome binding assay, site-directed mutant. Particulars: PC:PL, sulfatide liposomes. The method, then:
(§2) Lyophilized lipids were reconstituted in chloroform at 10 mg/ml and stored in glass tubes with Teflon tops at −20 °C until use. One milliliter of 10 mg/ml stock was dried under a stream of nitrogen in a glass tube until a lipid cake/film was formed. The lipid cake was then rehydrated in BLT rehydration buffer (5 mM Tris/HCl, pH 7.4, containing 150 mM NaCl) to a concentration of 1 mg/ml. Lipid suspensions were subjected to three freeze/thaw cycles using a dry ice ethanol/[…] water bath to encapsulate the buffer and improve liposome formation. The suspension and lipid extruder were equilibrated to temperature for 10 min and liposomes were extruded using […] polycarbonate membranes (Avestin). Liposomes were made by mixing stock lipid PL (1 mg/ml) with PC (10 mg/ml).
(§3) Sulfatide liposomes were generated as previously described ([94]). All lipids were resuspended in organic solvents as per manufacturer’s instructions. Liposomes were prepared with mixing PC:PE:cholesterol:sulfatides (1:1:1:4) and subsequently dried down by lyophilization to obtain lipid films. Lipids were hydrated in 20 mM Tris–HCL, pH 6.8, containing 100 mM NaCl at a concentration of 1 mg/ml.
(§4) PI(4)P liposomes were generated as described by Knodler et al. ([95]), with some modifications. Briefly, liposomes were generated at a lipid concentration of 10 mg/ml. Liposomes contained PC (60%), PI (30%), PE (8%), and PI(4)P (2%). Lipid solution was dried down and resuspended in liposome buffer (20 mM Hepes–HCL, pH 7.4, containing 1 mM EDTA and 50 mM potassium acetate). Liposomes were formed by sonication on ice.
(§5) Liposomes were serial diluted in floatation buffer (100 mM NaCl, 2 mM EDTA, pH 5.5) to a final concentration of 0.1 mg/ml. Nine hundred microliters of liposome solution was placed in clear ultracentrifuge tubes and mixed with 100 μl of 0.01 μg/ml of protein. The liposome/protein solution was incubated at room temperature for 1 h with occasional shaking. An initial 100 μl of liposome/protein solution (liposomes) was removed and the remaining 900 μl was centrifuged at 50,000g for 20 min at 4 °C. The pellet was resuspended in 800 μl of fresh floatation buffer, centrifuged as above, and 800 μl of supernatant was removed (wash 1). This was repeated a second time and again 800 μl of supernatant was removed (wash 2). The final pellet was resuspended in 100 μl of floatation buffer plus SDS treatment buffer (pellet). Thirty microliters of each fraction was run on a 15% SDS-PAGE gel and probed with an anti-GST monoclonal antibody at a 1:1500 dilution.

A further data set concerns the target T2, GST-ARV1-N98 C58/C61A (Homo sapiens, UniProt Q9H2C2, C58A/C61A).
T2 construct: Expresses amino-terminal 98 amino acids of ARV1; made in house; host or cells: E. coli BL21 (pGEX-4T1)
T2 sequence (Q9H2C2 1-98 C58A/C61A): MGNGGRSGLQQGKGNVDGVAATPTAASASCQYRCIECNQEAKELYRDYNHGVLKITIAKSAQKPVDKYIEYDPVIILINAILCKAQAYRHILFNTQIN
As to the kind of experiment: Liposome binding assay, site-directed mutant. The settings on record: PC:PL, sulfatide or PI(4)P liposomes. The method, then:
as §2, §3, §4, §5

Another data set deals with T3, GST-ARV1-N98 K67A (Homo sapiens, UniProt Q9H2C2, K67A).
T3 construct: Expresses amino-terminal 98 amino acids of ARV1; made in house; host or cells: E. coli BL21 (pGEX-4T1)
T3 sequence (Q9H2C2 1-98 K67A): T2 sequence (Q9H2C2 1-98 C58A/C61A) with A58C, A61C, K67A
As to the kind of experiment: Liposome binding assay, site-directed mutant. Particulars: PC:PL, sulfatide liposomes. On the procedure:
as §2, §3, §4, §5

For a further data set, the target named is T4, GST-ARV1-N98 C34/C37A (Homo sapiens, UniProt Q9H2C2, C34A/C37A).
T4 construct: Expresses amino-terminal 98 amino acids of ARV1; made in house; host or cells: E. coli BL21 (pGEX-4T1)
T4 sequence (Q9H2C2 1-98 C34A/C37A): T2 sequence (Q9H2C2 1-98 C58A/C61A) with C34A, C37A, A58C, A61C
As to the kind of experiment: Liposome binding assay, site-directed mutant. Particulars: PC:PL, sulfatide or PI(4)P liposomes. On the procedure: as §2, §3, §4, §5

The next data set addresses T5, GST-ARV1-N98 N94A (Homo sapiens, UniProt Q9H2C2, N94A).
T5 construct: Expresses amino-terminal 98 amino acids of ARV1; made in house; host or cells: E. coli BL21 (pGEX-4T1)
T5 sequence (Q9H2C2 1-98 N94A): T2 sequence (Q9H2C2 1-98 C58A/C61A) with A58C, A61C, N94A
As to the kind of experiment: Liposome binding assay, site-directed mutant. The settings on record: PC:PL, sulfatide or PI(4)P liposomes. On the procedure: as §2, §3, §4, §5

The target in the next data set is T6, GST-ARV1-N70 (Homo sapiens, UniProt Q9H2C2).
T6 construct: Expresses amino-terminal 70 amino acids of ARV1; made in house; host or cells: E. coli BL21 (pGEX-4T1)
T6 sequence (Q9H2C2 1-70): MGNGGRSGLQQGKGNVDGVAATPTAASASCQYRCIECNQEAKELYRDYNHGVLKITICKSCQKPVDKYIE
As to the kind of experiment: Lipid overlay far western, truncation. The format is binding. The settings on record: compared to ARV1-N98. The method, then: as §1

A further data set addresses T7, GST-ARV1-N98 (Homo sapiens, UniProt Q9H2C2).
T7 construct: Expresses amino-terminal 98 amino acids of ARV1; made in house; host or cells: E. coli BL21 (pGEX-4T1)
T7 sequence (Q9H2C2 1-98): T2 sequence (Q9H2C2 1-98 C58A/C61A) with A58C, A61C
In words: Lipid overlay far western. The format is binding. The settings on record: lipid-embedded membrane strips, incl. sphingolipid strip. The method, then:
as §1

For data set [1], the target named is T8, GST-ARV1 (full-length ARV1) (Homo sapiens, UniProt Q9H2C2).
T8 construct: Expresses full length ARV1; made in house; host or cells: E. coli BL21 (pGEX-4T1)
T8 sequence (Q9H2C2 1-271): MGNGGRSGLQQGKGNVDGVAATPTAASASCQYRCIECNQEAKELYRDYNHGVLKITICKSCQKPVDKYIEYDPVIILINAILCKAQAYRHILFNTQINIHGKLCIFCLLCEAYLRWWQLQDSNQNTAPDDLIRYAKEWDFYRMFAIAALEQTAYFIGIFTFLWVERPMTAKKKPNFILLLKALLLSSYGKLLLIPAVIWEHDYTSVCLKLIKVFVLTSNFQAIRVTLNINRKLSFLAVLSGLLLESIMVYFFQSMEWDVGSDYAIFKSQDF
As to the kind of experiment: Lipid overlay far western. Format: binding. Particulars: lipid-embedded membrane strips, incl. sphingolipid strip. The method, then: as §1

Another data set addresses T9, 6XHIS-ARV1-N98 N94Q (Homo sapiens, UniProt Q9H2C2, N94Q).
T9 construct: Expressing amino-terminal 98 amino acids of ARV1; made in house; host or cells: E. coli BL21 (pET-28a(+))
T9 sequence (Q9H2C2 1-98 N94Q): T2 sequence (Q9H2C2 1-98 C58A/C61A) with A58C, A61C, N94Q
In words: Lipid overlay far western, site-directed mutant. The format is binding. The settings on record: compared to the ARV1-N98 protein. The method, then:
as §1

Another data set concerns the target T10, 6XHIS-ARV1-N98 C58/C61A (Homo sapiens, UniProt Q9H2C2, C58A/C61A).
T10 construct: Expressing amino-terminal 98 amino acids of ARV1; made in house; host or cells: E. coli BL21 (pET-28a(+))
T10 sequence (Q9H2C2 1-98 C58A/C61A): T2 sequence (Q9H2C2 1-98 C58A/C61A)
In words: Lipid overlay far western, site-directed mutant. The format is binding. Particulars: compared to the ARV1-N98 protein. The method, then: as §1

In another data set the target is T11, 6XHIS-ARV1-N98 K54/K59A (Homo sapiens, UniProt Q9H2C2, K54A/K59A).
T11 construct: Expressing amino-terminal 98 amino acids of ARV1; made in house; host or cells: E. coli BL21 (pET-28a(+))
T11 sequence (Q9H2C2 1-98 K54A/K59A): T2 sequence (Q9H2C2 1-98 C58A/C61A) with K54A, A58C, K59A, A61C
As to the kind of experiment: Lipid overlay far western, site-directed mutant. Format: binding. Particulars: compared to the ARV1-N98 protein. On the procedure:
as §1

A further data set deals with T12, 6XHIS-ARV1-N98 C34/C37A (Homo sapiens, UniProt Q9H2C2, C34A/C37A).
T12 construct: Expressing amino-terminal 98 amino acids of ARV1; made in house; host or cells: E. coli BL21 (pET-28a(+))
T12 sequence (Q9H2C2 1-98 C34A/C37A): T2 sequence (Q9H2C2 1-98 C58A/C61A) with C34A, C37A, A58C, A61C
As to the kind of experiment: Lipid overlay far western, site-directed mutant. Particulars: compared to the ARV1-N98 protein. The format is binding. The method, then: as §1

For the next data set, the target named is T13, 6XHIS-ARV1-N98 K67A (Homo sapiens, UniProt Q9H2C2, K67A).
T13 construct: Expressing amino-terminal 98 amino acids of ARV1; made in house; host or cells: E. coli BL21 (pET-28a(+))
T13 sequence (Q9H2C2 1-98 K67A): T2 sequence (Q9H2C2 1-98 C58A/C61A) with A58C, A61C, K67A
As to the kind of experiment: Lipid overlay far western, site-directed mutant. Format: binding. The settings on record: compared to the ARV1-N98 protein. On the procedure: as §1

The target of data set [2] is T14, 6XHIS-ARV1 (full-length human ARV1, N-terminal 6XHIS tag) (human, UniProt Q9H2C2 1-271).
T14 construct: human ARV1, 271 amino acids, full length, expressed from pET-28a(+)-6XHIS-ARV1; also called hARV1; not shown: 6XHIS, N-terminal, kept
T14 sequence (looked up): T8 sequence (Q9H2C2 1-271)
In words: far-Western, overlay or dot blot; GST, GST-ARV1 truncations and 6XHIS-ARV1 dotted onto nitrocellulose, incubated with 6XHIS-ARV1 protein, probed with anti-6XHIS (and anti-GST) antibodies. The settings on record: both partners purified.

Data set [3] concerns the molecule itself. In words: sucrose density gradient centrifugation; 2.5 to 25% sucrose gradient in PBS, 132,000g for 19 h; fractions by SDS-PAGE and western with anti-ARV1; markers ovalbumin (50 kDa), bovine serum albumin (77 kDa), phosphorylase (103 kDa).

T1 sequence (Q9H2C2 1-98 K54A/K59A): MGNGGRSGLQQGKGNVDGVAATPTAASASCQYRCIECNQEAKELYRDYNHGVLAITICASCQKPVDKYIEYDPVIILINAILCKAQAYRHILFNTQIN
GST-Annexin A2, sequence (P07355 whole entry): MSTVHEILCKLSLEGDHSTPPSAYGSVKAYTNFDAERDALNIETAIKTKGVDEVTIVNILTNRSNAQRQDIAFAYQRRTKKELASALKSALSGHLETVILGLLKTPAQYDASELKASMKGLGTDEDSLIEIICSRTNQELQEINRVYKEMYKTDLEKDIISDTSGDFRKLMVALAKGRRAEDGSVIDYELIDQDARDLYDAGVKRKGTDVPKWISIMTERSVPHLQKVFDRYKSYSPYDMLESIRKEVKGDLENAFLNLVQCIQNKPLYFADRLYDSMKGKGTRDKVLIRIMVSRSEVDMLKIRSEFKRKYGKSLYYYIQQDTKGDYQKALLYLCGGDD

Regarding sulfatide, the lipid-protein interaction entry (on GST-Annexin A2; at GST-ARV1-N98; in data set [1]) was “interacted” in each case. Moreover, the liposome binding result is listed as “unable to bind” at GST-ARV1-N98 K54/K59A; “did not bind” on GST-ARV1-N98 C58/C61A; “unable to bind” at GST-ARV1-N98 K67A; “not” at GST-ARV1-N98 C34/C37A; “very weak” at GST-ARV1-N98 N94A. The “change of lipid-protein interaction” value is given as “loss of interaction” on GST-ARV1-N70; “more strongly” on 6XHIS-ARV1-N98 N94Q; “eliminated any interaction” on 6XHIS-ARV1-N98 C58/C61A; “abolished” at 6XHIS-ARV1-N98 K54/K59A; “eliminated any interaction” at 6XHIS-ARV1-N98 C34/C37A; “weakened” at 6XHIS-ARV1-N98 K67A.

B1: GST-ARV1-N90 (domain or fragment, human, UniProt Q9H2C2 1-90, looked up)
chain: MGNGGRSGLQQGKGNVDGVAATPTAASASCQYRCIECNQEAKELYRDYNHGVLKITICKSCQKPVDKYIEYDPVIILINAILCKAQAYRH
notes: human ARV1, amino-terminal 90 amino acids, expressed from pGEX-4T1-GST-N90; also called GST-N90; source: E. coli BL21, purified (glutathione beads); not shown: GST, N-terminal, kept
Consider B1, for which the binding result in data set [2] was “binds”.

B2: E. coli expressed purified full-length ARV1 (sucrose density gradient) (natural protein, human, UniProt Q9H2C2 1-271, looked up)
chain: T8 sequence (Q9H2C2 1-271)
notes: human ARV1, full length; detected with anti-ARV1 antibodies; also called purified ARV1; source: E. coli, purified
As to B2, in data set [3], the “stoichiometry N” value is 2.

In general, stoichiometry N refers to the number of molecules, sites or subunits per partner or assembly.
